Consider one compound from patent EP0697214A1, “Liposomal cyclosporin pharmaceutical formulations” (VESTAR, INC., priority 1994, dated 1996).

Experiment [1] deals with sensitive L1210 murine leukemia cells. The experiment in a line: Multiple drug resistance test, 3H-thymidine uptake. It counts as cell-based. Particulars: Mus musculus, daunorubicin alone, 24 hours, read-out: IC₅₀ in Sensitive Cells. The protocol: (§1) Multiple drug resistance (MDR) was tested in vitro using resistant and sensitive L1210 murine leukemia cells. Liposomal Cyclosporine was obtained as described in Example 13 (19:3:1 formulation HEPC:DMPG:Cyclosporine) except that a spray dried lipid powder was used and the unilamellar vesicles were formed through homogenization. Daunorubicin, Cyclosporine-CreL, and liposomal Cyclosporine were diluted in RPMI-1640. The final concentration of daunorubicin in each well was 0, 0.3, 1, 3, 10, 30, 100 or 1000 ng/ml. The final concentration of Cyclosporine-CreL in each well was 0, 10, 70, 300, 1,250, 5,000, 20,000, 80,000, 160,000, 310,000, 620,000, or 1,050,000 ng/ml. The final concentration of liposomal Cyclosporine in each well was 0, 10, 70, 300, 1,250, 5,000, 20,000, 80,000, 160,000, 310,000, 620,000, or 1,050,000 ng/ml. Fifty microliters of each daunorubicin concentration was added to one well of a flat bottom 96-well culture plate. Fifty microliters of the appropriate concentration of Cyclosporine-CreL or liposomal Cyclosporine were also added to each well. Each drug combination was tested in triplicate. […]
(§2) After 20 hours of incubation, the cells were pulsed with 0.5µCu of³H-Thymidine per well. […] The cells in each well were then harvested using a Skatron Harvester and counted in a beta liquid scintillation counter (LKB). The IC₅₀ was calculated using a linear regression treatment of the data.

Experiment [2] deals with resistant L1210 murine leukemia cells. The experiment in a line: Multiple drug resistance test, 3H-thymidine uptake. The following applies: Mus musculus, daunorubicin alone, 24 hours, read-out: IC₅₀ in Resistant Cells. The experiment is classed as cell-based. As to the method: as §1, §2

For `COc1cccc2c1C(=O)c1c(O)c3c(c(O)c1C2=O)C[C@@](O)(C(C)=O)C[C@@H]3O[C@H]1C[C@H](N)[C@H](O)[C@H](C)O1` [Daunorubicin], the IC50 in experiment [1] worked out at 0.47 µg/mL; in experiment [2] it was 0.722 µg/mL.
